Test results published in patent publication US9580444B2, “Polycyclic pyrazolinone derivative and herbicide comprising same as effective component thereof” (priority 2013, dated 2017).

Experiments:
Type in all cases: in vivo
Settings in all cases: 500 g a.i/ha, foliage treatment after emergence, about 14 days after treatment, score 0-5
[1] = tested on: Abutilon theophrasti (velvetleaf); test: Test Example-4: herbicidal effect by a foliage treatment after weeds are generated under upland field conditions
From the text: (§1) Using the formulation prepared according to the methods described above, the herbicidal effect of the bicyclic pyrazolinone derivative of the invention according to the methods shown in Test Examples below was examined. The herbicidal effect with respect to the test weeds or the phytotoxicity with respect to the test crops was examined according to the following criteria, and evaluated in six stage scores of 0 to 5. A vat having an area of 65 cm^2 and a depth of 2 cm was filled with upland soil, then, seeds of Amaranthus viridis (green amaranthus), Abutilon theophrasti (velvetleaf), Chenopodium album (common lambsquarters), […]. While watering was suitably performed on there, the seeds were grown for 14 days. A wettable powder or an emulsifiable concentrate of the compound of the present invention prepared according to Formulation Example was diluted, and a spray treatment was uniformly performed on the foliage portion of the plant so as to be a predetermined dosage in the amount of water of 4000 L per hectare. The herbicidal effect with respect to the test weeds and the phytotoxicity with respect to corn about 14 days after the treatment were evaluated according to the evaluation criteria in six stages of 0 to 5 described above.

[2] = tested on: Amaranthus viridis (green amaranthus); test: as above
From the text: as §1

[3] = tested on: Chenopodium album (common lambsquarters); test: as above
From the text: as §1

[4] = tested on: corn; test: Test Example-4: phytotoxicity by a foliage treatment after weeds are generated under upland field conditions
From the text: as §1

Row | Compound | Herbicidal effect Abutilon theophrast [1] | Herbicidal effect Amaranthus viridis [2] | Herbicidal effect Chenopodium album [3] | Phytotoxicity Corn [4]
1 | C#CC(C)Oc1cc(-c2c(Cl)n3n(c2=O)CCCC3)ccc1Cl (stereo not drawn) [Example 1-67] | 5 (Herbicidal effect/phytotoxicity was 90% or greater) | 5 (Herbicidal effect/phytotoxicity was 90% or greater) | 5 (Herbicidal effect/phytotoxicity was 90% or greater) | 0 (Herbicidal effect/phytotoxicity was 0% to 10%)
2 | COc1cc(-c2c(Cl)n3n(c2=O)CCCCC3)c(F)cc1Cl [Example 1-141] | 5 (Herbicidal effect/phytotoxicity was 90% or greater) | 5 (Herbicidal effect/phytotoxicity was 90% or greater) | 5 (Herbicidal effect/phytotoxicity was 90% or greater) | 0 (Herbicidal effect/phytotoxicity was 0% to 10%)
3 | CCOC(=O)COc1cc(-c2c(Cl)n3n(c2=O)CCCC3)c(F)cc1Cl [Example 1-163] | 5 (Herbicidal effect/phytotoxicity was 90% or greater) | 5 (Herbicidal effect/phytotoxicity was 90% or greater) | 5 (Herbicidal effect/phytotoxicity was 90% or greater) | 0 (Herbicidal effect/phytotoxicity was 0% to 10%)
4 | O=c1c(-c2cc(OC3CCCC3)c(Cl)cc2F)c(Cl)n2n1CCCCC2 [Example 1-182] | 5 (Herbicidal effect/phytotoxicity was 90% or greater) | 5 (Herbicidal effect/phytotoxicity was 90% or greater) | 5 (Herbicidal effect/phytotoxicity was 90% or greater) | 1 (Herbicidal effect/phytotoxicity was 10% to 30%)
5 | C=C(COc1cc(-c2c(Cl)n3n(c2=O)CCCC3)c(F)cc1Cl)c1cccc(Cl)c1 [Example 1-228] | 5 (Herbicidal effect/phytotoxicity was 90% or greater) | 5 (Herbicidal effect/phytotoxicity was 90% or greater) | 5 (Herbicidal effect/phytotoxicity was 90% or greater) | 1 (Herbicidal effect/phytotoxicity was 10% to 30%)
6 | C=C(COc1cc(-c2c(Cl)n3n(c2=O)CCCC3)c(F)cc1Cl)c1ccc(OCC)c(F)c1F [Example 1-230] | 5 (Herbicidal effect/phytotoxicity was 90% or greater) | 5 (Herbicidal effect/phytotoxicity was 90% or greater) | 5 (Herbicidal effect/phytotoxicity was 90% or greater) | 0 (Herbicidal effect/phytotoxicity was 0% to 10%)
7 | O=c1c(-c2cc([N+](=O)[O-])c(Cl)cc2F)c(C(F)(F)F)n2n1CCCC2 [Example 1-336] | 5 (Herbicidal effect/phytotoxicity was 90% or greater) | 5 (Herbicidal effect/phytotoxicity was 90% or greater) | 5 (Herbicidal effect/phytotoxicity was 90% or greater) | 0 (Herbicidal effect/phytotoxicity was 0% to 10%)
8 | CCOC(=CC(=O)OCC(C)C)COc1cc(-c2c(Cl)n3n(c2=O)CCCC3)c(F)cc1Cl [Example 2-27] | 5 (Herbicidal effect/phytotoxicity was 90% or greater) | 5 (Herbicidal effect/phytotoxicity was 90% or greater) | 5 (Herbicidal effect/phytotoxicity was 90% or greater) | 0 (Herbicidal effect/phytotoxicity was 0% to 10%)
9 | C=C(C)COC(=O)C=C(COc1cc(-c2c(Cl)n3n(c2=O)CCCC3)c(F)cc1Cl)OCC [Example 2-30] | 5 (Herbicidal effect/phytotoxicity was 90% or greater) | 5 (Herbicidal effect/phytotoxicity was 90% or greater) | 5 (Herbicidal effect/phytotoxicity was 90% or greater) | 0 (Herbicidal effect/phytotoxicity was 0% to 10%)
